Measurements from PMC2824119 (Cancer Chemotherapy and Pharmacology, 2010).

Legend:
[1] = target: CYP2E1 (Homo sapiens, UniProt P05181); experiment: CYP2E1 inhibition in human liver microsomes; format: in vitro ADME
[2] = target: T1, CYP1A2 (Homo sapiens, UniProt P05177); settings: azacitidine at 70 μM or lower concentrations
T1 sequence (P05177 1-516): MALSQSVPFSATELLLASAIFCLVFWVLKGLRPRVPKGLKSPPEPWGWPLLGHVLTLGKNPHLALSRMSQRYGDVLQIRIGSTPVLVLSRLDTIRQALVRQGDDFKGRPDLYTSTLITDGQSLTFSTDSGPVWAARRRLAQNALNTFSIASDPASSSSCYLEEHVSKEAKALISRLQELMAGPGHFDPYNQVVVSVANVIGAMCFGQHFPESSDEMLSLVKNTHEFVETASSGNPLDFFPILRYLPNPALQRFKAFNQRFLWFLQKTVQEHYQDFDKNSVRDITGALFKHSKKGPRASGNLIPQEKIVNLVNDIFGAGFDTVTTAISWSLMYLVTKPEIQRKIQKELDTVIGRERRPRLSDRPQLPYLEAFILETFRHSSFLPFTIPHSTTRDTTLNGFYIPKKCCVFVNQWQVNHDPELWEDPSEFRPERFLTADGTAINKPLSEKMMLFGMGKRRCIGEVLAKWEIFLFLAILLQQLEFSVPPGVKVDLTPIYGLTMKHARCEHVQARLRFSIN

[3] = test system: CYP1A2
[4] = test system: CYP3A4/5; settings: hepatocytes

Sequence of CYP2E1 (P05181 whole entry): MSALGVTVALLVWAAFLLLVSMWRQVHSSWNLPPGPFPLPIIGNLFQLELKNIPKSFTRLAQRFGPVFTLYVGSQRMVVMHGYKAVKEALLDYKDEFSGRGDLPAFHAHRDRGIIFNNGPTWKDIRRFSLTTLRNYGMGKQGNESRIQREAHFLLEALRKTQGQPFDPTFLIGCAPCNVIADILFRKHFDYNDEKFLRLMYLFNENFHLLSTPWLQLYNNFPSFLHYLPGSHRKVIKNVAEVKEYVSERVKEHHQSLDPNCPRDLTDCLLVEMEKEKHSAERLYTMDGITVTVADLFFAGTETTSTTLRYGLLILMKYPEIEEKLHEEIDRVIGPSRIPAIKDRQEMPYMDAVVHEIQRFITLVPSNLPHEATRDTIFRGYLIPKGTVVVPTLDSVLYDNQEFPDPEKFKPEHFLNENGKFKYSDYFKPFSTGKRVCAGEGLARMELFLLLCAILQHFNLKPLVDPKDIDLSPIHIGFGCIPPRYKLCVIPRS

**Q.** `Nc1ncn([C@@H]2O[C@H](CO)[C@@H](O)[C@H]2O)c(=O)n1` [Azacitidine] was tested. Which “Inhibition of CYP2E1” value ([1]; azacitidine at 70 μM or lower concentrations) did it give?
**A.** no inhibition

**Q.** And the Percent inhibition ([1]; azacitidine at 100 μM, chlorzoxazone 40 μM, HLM 0.8 mg/mL)?
**A.** < 30%

**Q.** And the “Inhibition of CYP1A2” value [2]?
**A.** no inhibition

**Q.** What about the “Decrease of CYP1A2-mediated 7-ethoxyresorufin O-dealkylation” value ([3]; azacitidine 100 μM, not statistically significant) of the same compound?
**A.** 29%

**Q.** What about the “Induction of CYP1A2 activity” value ([3]; clinically relevant concentrations, once daily for three consecutive days) of the same compound?
**A.** did not induce

**Q.** What about the “Induction of CYP3A4/5 activity” value [4] of the same compound?
**A.** did not induce

**Q.** What about the “Decrease of CYP3A4/5-catalyzed testosterone 6β-hydroxylation” value ([4]; human) of the same compound?
**A.** 78%
